Measured values reported in patent US8084456B2, “Pyrazine-based tubulin inhibitors” (YM Biosciences Australia Pty Ltd, priority 2002, dated 2011).

What was measured:
[1] = tested on: DU145 (Prostate Cancer) cells; experiment: Cellular growth assay (MTT), DU145; assay type: cell-based; conditions: Homo sapiens, DU-145, 40 hr incubation, read-out: DU145 (inhibition of 50% of cellular growth)
Procedure: (§1) K562 (Chronic Myeloid Leukemia), PC3 (Prostate Cancer), and DU145 (Prostate Cancer) were obtained from the American Type Culture Collection (ATCC). K562 was grown in RPMI, with 10% FBS with Glutamx added. DU145 cells were cultured in DMED, with 10% FBS and Glutamx and MEM non-essential amino acids added. PC3 cells were grown in F12K medium, with 10% FBS and Glutamx and MEM non-essential amino acids added. All cells were grown at 37° C. in 5% CO2.

[2] = tested on: PC3 (Prostate Cancer) cells; experiment: Cellular growth assay (MTT), PC3; assay type: cell-based; conditions: Homo sapiens, PC-3, 40 hr incubation, read-out: PC3 (inhibition of 50% of cellular growth)
Procedure: as §1

[3] = tested on: K562 (Chronic Myeloid Leukemia) cells; experiment: Cellular growth assay (MTT), K562; assay type: cell-based; conditions: Homo sapiens, 40 hr incubation, read-out: K562 (inhibition of 50% of cellular growth)
Procedure: as §1

TelJak2 = TelJak2 (Homo sapiens, UniProt O60674); experiment: Cellular growth assay (MTT), BaF3 TEL/JAK2 cells; assay type: cell-based; conditions: 40 hr incubation, read-out: TelJak2 (inhibition of 50% of cellular growth)
TelJak2, sequence (O60674 with tags, fused parts or gaps): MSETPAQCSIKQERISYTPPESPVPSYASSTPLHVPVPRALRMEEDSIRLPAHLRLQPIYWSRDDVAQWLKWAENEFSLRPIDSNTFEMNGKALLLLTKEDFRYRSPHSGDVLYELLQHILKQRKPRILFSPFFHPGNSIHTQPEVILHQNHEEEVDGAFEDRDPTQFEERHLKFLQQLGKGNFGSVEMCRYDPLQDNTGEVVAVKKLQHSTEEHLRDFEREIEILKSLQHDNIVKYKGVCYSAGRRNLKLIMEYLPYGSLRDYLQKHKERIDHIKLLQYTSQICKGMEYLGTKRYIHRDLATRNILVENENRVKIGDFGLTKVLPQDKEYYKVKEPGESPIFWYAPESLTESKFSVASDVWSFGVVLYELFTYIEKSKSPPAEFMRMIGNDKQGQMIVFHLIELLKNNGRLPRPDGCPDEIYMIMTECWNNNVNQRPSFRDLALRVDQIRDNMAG

TelJak3 = TelJak3 (Homo sapiens, UniProt P52333); experiment: Cellular growth assay (MTT), BaF3 TEL/JAK3 cells; assay type: cell-based; conditions: 40 hr incubation, read-out: TelJak3 (inhibition of 50% of cellular growth)
TelJak3, sequence (P52333 with tags, fused parts or gaps): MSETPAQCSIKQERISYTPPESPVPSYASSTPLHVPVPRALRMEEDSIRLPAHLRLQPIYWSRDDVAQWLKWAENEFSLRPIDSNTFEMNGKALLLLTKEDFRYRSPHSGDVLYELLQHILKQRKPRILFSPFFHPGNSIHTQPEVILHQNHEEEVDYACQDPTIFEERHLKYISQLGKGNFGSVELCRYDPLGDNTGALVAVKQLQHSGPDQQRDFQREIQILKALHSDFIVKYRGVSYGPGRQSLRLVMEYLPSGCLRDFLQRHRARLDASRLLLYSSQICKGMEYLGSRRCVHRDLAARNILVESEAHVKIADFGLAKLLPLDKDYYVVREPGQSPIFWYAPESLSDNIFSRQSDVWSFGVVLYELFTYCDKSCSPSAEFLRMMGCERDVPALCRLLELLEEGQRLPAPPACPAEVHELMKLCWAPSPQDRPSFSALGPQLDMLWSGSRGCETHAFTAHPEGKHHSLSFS

Tubulin = Tubulin assay (turbidometric microtubule assembly); assay type: biochemical; conditions: at 50 μM, absorbance at 340 nm, 37° C.
Procedure: Turbidometric assays of microtubule assembly were performed by incubating microtubule protein in cuvettes at 37° C. in a thermostatically controlled spectrophotometer measuring the change in absorbance at 340 nm over time. The microtubule protein was incubated with the each test compound at 0° C. and polymerisation was initiated by addition of 1 mM GTP, prior to heating to 37° C.

Structure (SMILES) | IC50 [1] [µM] | IC50 [2] [µM] | IC50 [3] [µM] | IC50 (TelJak2) [µM] | IC50 (TelJak3) [µM] | Tubulin (inhibition of tubulin polymerisation) (Tubulin)
CCCC(Nc1cncc(-c2ccc(O)c(OC)c2)n1)c1cccc(C)c1 (centres unmarked) | ≤ 20 | ≤ 20 | ≤ 20 | ≤ 20 | ≤ 20 | + (inhibited tubulin polymerisation by greater than 50% at 50 μM)
CCC[C@H](Nc1cncc(-c2ccc(O)c(OC)c2)n1)c1cccnc1 | ≤ 20 | ≤ 20 | ≤ 20 | ≤ 20 | ≤ 20 | + (inhibited tubulin polymerisation by greater than 50% at 50 μM)
CCCC(Nc1cncc(-c2ccc(O)c(OC)c2)n1)c1cc(F)ccc1F (centres unmarked) | > 20 | > 20 | ≤ 20 | ≤ 20 | ≤ 20 | –
CCCC(Nc1cncc(-c2ccc(O)c(OC)c2)n1)c1cccc(C(=O)NCc2cccnc2)c1 (centres unmarked) | > 20 | > 20 | ≤ 20 | ≤ 20 | ≤ 20 | –
CCCC(Nc1cncc(-c2ccc(O)c(OC)c2)n1)c1cccc(C(F)(F)F)c1 (centres unmarked) | ≤ 20 | ≤ 20 | ≤ 20 | ≤ 20 | ≤ 20 | + (inhibited tubulin polymerisation by greater than 50% at 50 μM)
CCCC(Nc1cncc(-c2ccc(O)c(OC)c2)n1)c1cccc([C@H](O)OCCOCC)c1 (some centres unmarked) | > 20 | > 20 | ≤ 20 | ≤ 20 | ≤ 20 | –
CCCC(Nc1cncc(-c2ccc(O)c(OC)c2)n1)c1ccc(O)cc1 (centres unmarked) | > 20 | > 20 | > 20 | ≤ 20 | ≤ 20 | –
COc1cc(-c2cncc(NC(CCN3CCN(C)CC3)c3ccccc3)n2)ccc1O (centres unmarked) | ≤ 20 | ≤ 20 | ≤ 20 | ≤ 20 | ≤ 20 | + (inhibited tubulin polymerisation by greater than 50% at 50 μM)
CCCC(Nc1cncc(-c2ccc(O)c(OCC)c2)n1)c1cccnc1 (centres unmarked) | > 20 | ≤ 20 | ≤ 20 | ≤ 20 | ≤ 20 | –
CCCC(Nc1cncc(-c2ccc(O)c(OC)c2)n1)c1ccc(Cl)c(F)c1 (centres unmarked) | > 20 | > 20 | ≤ 20 | ≤ 20 | ≤ 20 | –
CCCC(Nc1cncc(-c2ccc(O)c(OC(C)C)c2)n1)c1cccnc1 (centres unmarked) | ≤ 20 | ≤ 20 | ≤ 20 | ≤ 20 | ≤ 20 | + (inhibited tubulin polymerisation by greater than 50% at 50 μM)
CCCC(Nc1cncc(-c2ccc(O)c(OC)c2)n1)c1cccc(OC(F)(F)F)c1 (centres unmarked) | > 20 | > 20 | ≤ 20 | ≤ 20 | ≤ 20 | –
COc1cc(-c2cncc(NC(CCCCN3CCOCC3)c3ccccc3)n2)ccc1O (centres unmarked) | > 20 | > 20 | > 20 | ≤ 20 | ≤ 20 | –
CCCC(Nc1nc(-c2ccc(O)c(OC)c2)cnc1N)c1cccc(F)c1 (centres unmarked) | > 20 | > 20 | ≤ 20 | ≤ 20 | ≤ 20 | –
CCCC(Nc1cncc(-c2ccc(NC(C)=O)c(OC)c2)n1)c1cncc(C)c1 (centres unmarked) | ≤ 20 | > 20 | ≤ 20 | ≤ 20 | ≤ 20 | –
CCCC(Nc1cncc(-c2ccc(O)c(OCC)c2)n1)c1cncc(C)c1 (centres unmarked) | > 20 | ≤ 20 | ≤ 20 | ≤ 20 | ≤ 20 | –
CCCC(Nc1cncc(-c2cccc(OC)c2)n1)c1ccccc1 (centres unmarked) | > 20 | > 20 | ≤ 20 | ≤ 20 | ≤ 20 | –
CCCC(Nc1cncc(-c2ccc(O)c(OC)c2)n1)c1ccc(OC)c(OC)c1 (centres unmarked) | ≤ 20 | > 20 | ≤ 20 | ≤ 20 | ≤ 20 | –
CCCC(Nc1cncc(-c2cc(OC)c(OC)c(OC)c2)n1)c1ccccc1 (centres unmarked) | ≤ 20 | > 20 | ≤ 20 | ≤ 20 | ≤ 20 | –
CCCC(Nc1cncc(-c2ccc(N)c(OC)c2)n1)c1ccccc1 (centres unmarked) | > 20 | > 20 | ≤ 20 | ≤ 20 | ≤ 20 | –
CCCC(Nc1cncc(-c2ccc(O)c(OC)c2)n1)c1cccc(C#N)c1 (centres unmarked) | > 20 | ≤ 20 | ≤ 20 | ≤ 20 | ≤ 20 | –
COc1cc(-c2cncc(NC(C)c3ccccn3)n2)ccc1O (centres unmarked) | > 20 | > 20 | > 20 | ≤ 20 | ≤ 20 | –

Structure (SMILES) | IC50 [1] [µM] | IC50 [2] [µM] | IC50 [3] [µM] | IC50 (TelJak2) [µM] | IC50 (TelJak3) [µM] | Tubulin (inhibition of tubulin polymerisation) (Tubulin)
CCC[C@H](Nc1cncc(-c2ccc(NC(C)=O)c(OC)c2)n1)c1ccccc1 | – | > 20 | – | ≤ 20 | ≤ 20 | –
COc1cc(-c2cncc(NC(CCO)c3ccccc3)n2)ccc1O (centres unmarked) | > 20 | > 20 | > 20 | ≤ 20 | ≤ 20 | –
CCCC(Nc1cncc(-c2ccc(NC(C)=O)c(OC)c2)n1)c1cccnc1 (centres unmarked) | > 20 | ≤ 20 | ≤ 20 | ≤ 20 | ≤ 20 | –
CCCC(=O)Nc1ccc(-c2cncc(NC(CCC)c3cccnc3)n2)cc1OC (centres unmarked) | – | ≤ 20 | ≤ 20 | ≤ 20 | ≤ 20 | –
COc1cc(-c2cncc(NC(CC(C)C)c3ccccc3)n2)ccc1O (centres unmarked) | > 20 | > 20 | ≤ 20 | ≤ 20 | ≤ 20 | –
CCCC(Nc1cncc(-c2ccc(O)c(OCC)c2)n1)c1cccc(F)c1 (centres unmarked) | > 20 | ≤ 20 | ≤ 20 | ≤ 20 | ≤ 20 | –
CCCC(Nc1cncc(-c2ccc(O)c(OC)c2)n1)c1cccc(F)c1F (centres unmarked) | > 20 | > 20 | ≤ 20 | ≤ 20 | ≤ 20 | –
CCN(CC)CCCC(Nc1cncc(-c2ccc(O)c(OC)c2)n1)c1ccccc1 (centres unmarked) | > 20 | > 20 | > 20 | ≤ 20 | ≤ 20 | –
CCCC(Nc1cncc(-c2ccc(O)c(OC)c2)n1)c1cccc(NC(C)=O)c1 (centres unmarked) | > 20 | > 20 | ≤ 20 | ≤ 20 | ≤ 20 | –
CCCC(Nc1cncc(-c2ccc(NS(C)(=O)=O)c(OC)c2)n1)c1ccc(F)cc1 (centres unmarked) | > 20 | ≤ 20 | ≤ 20 | ≤ 20 | ≤ 20 | –
CCCC(Nc1cncc(-c2cc(OC)c(O)c(OC)c2)n1)c1ccccc1 (centres unmarked) | > 20 | > 20 | > 20 | ≤ 20 | ≤ 20 | –
CCCOC(=O)c1cccc(C(CCC)Nc2cncc(-c3ccc(O)c(OC)c3)n2)c1 (centres unmarked) | > 20 | ≤ 20 | ≤ 20 | ≤ 20 | ≤ 20 | –
CCCC(Nc1cncc(-c2ccc(O)c(OC)c2)n1)c1cccc(C(=O)NC(C)C2CC2)c1 (centres unmarked) | > 20 | > 20 | ≤ 20 | ≤ 20 | ≤ 20 | –
CCCC(Nc1cncc(-c2ccc(O)c(OC)c2)n1)c1ccc(N(CC)CC)cc1 (centres unmarked) | ≤ 20 | > 20 | > 20 | ≤ 20 | ≤ 20 | –
COc1cc(-c2cncc(NC(CCC3OCCO3)c3cccc(Cl)c3)n2)ccc1O (centres unmarked) | > 20 | > 20 | ≤ 20 | ≤ 20 | ≤ 20 | –
CCN(CC)CCCCC(Nc1cncc(-c2ccc(O)c(OC)c2)n1)c1ccccc1 (centres unmarked) | ≤ 20 | > 20 | > 20 | ≤ 20 | ≤ 20 | –
CCCC(Nc1cncc(-c2ccc3c(c2)OCO3)n1)c1cccnc1 (centres unmarked) | > 20 | > 20 | ≤ 20 | ≤ 20 | ≤ 20 | –
CCCC(Nc1cncc(-c2ccc(O)c(OC)c2)n1)c1cccc(C(=O)NCCN(C)C)c1 (centres unmarked) | > 20 | ≤ 20 | ≤ 20 | ≤ 20 | ≤ 20 | –
CCCC(Nc1cncc(-c2ccc(O)c(OC)c2)n1)c1ccncc1 (centres unmarked) | > 20 | – | ≤ 20 | ≤ 20 | ≤ 20 | –
CCC[C@H](Nc1cncc(-c2ccc(NCC)c(OC)c2)n1)c1ccccc1 | > 20 | ≤ 20 | ≤ 20 | ≤ 20 | ≤ 20 | –
CCCC(Nc1cncc(-c2ccc(O)c(OC)c2)n1)c1ccc(SC)cc1 (centres unmarked) | > 20 | > 20 | ≤ 20 | ≤ 20 | ≤ 20 | –
CCCC(Nc1cncc(-c2ccc(O)c(OC)c2)n1)c1cccc(C(=O)NC)c1 (centres unmarked) | > 20 | > 20 | ≤ 20 | ≤ 20 | ≤ 20 | –
